Measurements taken from patent publication US12209087B2, “AKT1 modulators” (Alterome Therapeutics, Inc., priority 2022, dated 2025).

Target: T1, full length AKT E17K (Homo sapiens, UniProt P31749, E17K)
T1 construct: host or cells: HEK-293 (ATCC CRL-1573)
Experiment: NanoBRET Target Engagement (TE) Assay
Format: cell-based
Settings: competitive displacement of tracer in cells, read-out: AKT1 E17K IC50
How it was run: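 Compound and tracer incubated 2 h before luminescence at donor 450 nm and acceptor 600 nm, with extracellular signal inhibited. EC50 by sigmoidal variable-slope regression.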

T1 sequence (P31749 whole entry E17K): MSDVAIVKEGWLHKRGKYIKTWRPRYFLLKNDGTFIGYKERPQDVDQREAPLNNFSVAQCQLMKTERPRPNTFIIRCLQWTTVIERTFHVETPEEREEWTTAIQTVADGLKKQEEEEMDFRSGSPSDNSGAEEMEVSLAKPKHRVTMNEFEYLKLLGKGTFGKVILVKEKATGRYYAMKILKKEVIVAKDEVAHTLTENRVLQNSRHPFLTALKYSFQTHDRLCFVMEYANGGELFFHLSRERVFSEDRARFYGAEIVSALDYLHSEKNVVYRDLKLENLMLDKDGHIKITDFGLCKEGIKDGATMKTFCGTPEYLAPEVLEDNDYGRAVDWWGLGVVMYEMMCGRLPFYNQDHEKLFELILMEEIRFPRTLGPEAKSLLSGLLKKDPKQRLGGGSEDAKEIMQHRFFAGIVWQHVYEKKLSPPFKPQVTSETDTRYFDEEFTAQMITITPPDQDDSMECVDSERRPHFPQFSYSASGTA

Row | SMILES | IC50 [nM]
1 | Cc1cnn(-c2ccc3nc(-c4cccnc4N)n(-c4ccc(CN5CCC(Nc6ccnc(C#N)n6)CC5)cc4)c3n2)n1 [Example 568, 4-((1-(4-(2-(2-Aminopyridin-3-yl)-5-(4-methyl-2H-1,2,3-triazol-2-yl)-3H-imidazo[4,5-b]pyridin-3-yl)benzyl)piperidin-4-yl)amino)pyrimidine-2-carbonitrile] | < 15
2 | Cn1cnnc1-c1ccc2nc(-c3cccnc3N)n(-c3ccc(CN4CCC(Nc5ccnc(C#N)n5)CC4)cc3)c2n1 [Example 569, 4-((1-(4-(2-(2-Aminopyridin-3-yl)-5-(4-methyl-4H-1,2,4-triazol-3-yl)-3H-imidazo[4,5-b]pyridin-3-yl)benzyl)piperidin-4-yl)amino)pyrimidine-2-carbonitrile] | 60 to 600
3 | N#Cc1nccc(NC2CCN(Cc3ccc(-n4c(-c5cccnc5N)nc5ccc(-c6ncccc6F)nc54)cc3)CC2)n1 [Example 570, 4-((1-(4-(2-(2-Aminopyridin-3-yl)-5-(3-fluoropyridin-2-yl)-3H-imidazo[4,5-b]pyridin-3-yl)benzyl)piperidin-4-yl)amino)pyrimidine-2-carbonitrile] | < 15
4 | Cc1cccc(-c2ccc3nc(-c4cccnc4N)n(-c4ccc(CN5CCC(Nc6ccnc(C#N)n6)CC5)cc4)c3n2)n1 [Example 571, 4-((1-(4-(2-(2-Aminopyridin-3-yl)-5-(6-methylpyridin-2-yl)-3H-imidazo[4,5-b]pyridin-3-yl)benzyl)piperidin-4-yl)amino)pyrimidine-2-carbonitrile] | < 15
5 | N#Cc1nccc(NC2CCN(Cc3ccc(-n4c(-c5cccnc5N)nc5ccc(-c6ncn(C(F)F)n6)nc54)cc3)CC2)n1 [Example 572, 4-((1-(4-(2-(2-Aminopyridin-3-yl)-5-(1-(difluoromethyl)-1H-1,2,4-triazol-3-yl)-3H-imidazo[4,5-b]pyridin-3-yl)benzyl)piperidin-4-yl)amino)pyrimidine-2-carbonitrile] | < 15
6 | N#Cc1nccc(NC2CCN(Cc3ccc(-n4c(-c5cncnc5N)nc5ccc(-c6ccc(F)cn6)nc54)cc3)CC2)n1 [Example 573, 4-((1-(4-(2-(4-Aminopyrimidin-5-yl)-5-(5-fluoropyridin-2-yl)-3H-imidazo[4,5-b]pyridin-3-yl)benzyl)piperidin-4-yl)amino)pyrimidine-2-carbonitrile] | 15 to 60
7 | N#Cc1nccc(NC2CCN(Cc3ccc(-n4c(-c5nccnc5N)nc5ccc(-c6ccc(F)cn6)nc54)cc3)CC2)n1 [Example 574, 4-((1-(4-(2-(3-Aminopyrazin-2-yl)-5-(5-fluoropyridin-2-yl)-3H-imidazo[4,5-b]pyridin-3-yl)benzyl)piperidin-4-yl)amino)pyrimidine-2-carbonitrile] | < 15
8 | N#Cc1nccc(NC2CCN(Cc3ccc(-n4c(-c5cccnc5)nc5ccc(-c6ccc(F)cn6)nc54)cc3)CC2)n1 [Example 575, 4-((1-(4-(5-(5-Fluoropyridin-2-yl)-2-(pyridin-3-yl)-3H-imidazo[4,5-b]pyridin-3-yl)benzyl)piperidin-4-yl)amino)pyrimidine-2-carbonitrile] | 60 to 600
9 | N#Cc1nccc(NC2CCN(Cc3ccc(-n4c(-c5ccccc5N)nc5ccc(-c6ccc(F)cn6)nc54)cc3)CC2)n1 [Example 576, 4-((1-(4-(2-(2-Aminophenyl)-5-(5-fluoropyridin-2-yl)-3H-imidazo[4,5-b]pyridin-3-yl)benzyl)piperidin-4-yl)amino)pyrimidine-2-carbonitrile] | 15 to 60
10 | N#Cc1nccc(NC2CCN(Cc3ccc(-n4c(-c5ccccc5)nc5ccc(-c6ccc(F)cn6)nc54)cc3)CC2)n1 [Example 577, 4-((1-(4-(5-(5-Fluoropyridin-2-yl)-2-phenyl-3H-imidazo[4,5-b]pyridin-3-yl)benzyl)piperidin-4-yl)amino)pyrimidine-2-carbonitrile] | 15 to 60
11 | [2H]C([2H])([2H])Oc1ccc(-c2ccc3nc(-c4cccnc4N)n(-c4ccc(CN5CCC(Nc6ccnc(C#N)n6)CC5)cc4)c3n2)nc1 [Example 578, 4-((1-(4-(2-(2-Aminopyridin-3-yl)-5-(5-(methoxy-d)pyridin-2-yl)-3H-imidazo[4,5-b]pyridin-3-yl)benzyl)piperidin-4-yl)amino)pyrimidine-2-carbonitrile] | < 15
12 | N#Cc1nccc(NC2CCN(Cc3ccc(-n4c(-c5cccnc5N)nc5ccc(-c6ccc(OC(F)F)cn6)nc54)cc3)CC2)n1 [Example 579, 4-((1-(4-(2-(2-Aminopyridin-3-yl)-5-(5-(difluoromethoxy)pyridin-2-yl)-3H-imidazo[4,5-b]pyridin-3-yl)benzyl)piperidin-4-yl)amino)pyrimidine-2-carbonitrile] | < 15
13 | N#Cc1nccc(NC2CCN(Cc3ccc(-n4c(-c5cccnc5N)nc5ccc(-c6ccc(OCF)cn6)nc54)cc3)CC2)n1 [Example 580, 4-((1-(4-(2-(2-Aminopyridin-3-yl)-5-(5-(fluoromethoxy)pyridin-2-yl)-3H-imidazo[4,5-b]pyridin-3-yl)benzyl)piperidin-4-yl)amino)pyrimidine-2-carbonitrile] | < 15
14 | COc1cnc(-c2ccc3nc(-c4cccnc4N)n(-c4ccc(CN5CCC(Nc6ccnc(C#N)n6)CC5)cc4)c3n2)nc1 [Example 581, 4-((1-(4-(2-(2-Aminopyridin-3-yl)-5-(5-methoxypyrimidin-2-yl)-3H-imidazo[4,5-b]pyridin-3-yl)benzyl)piperidin-4-yl)amino)pyrimidine-2-carbonitrile] | 15 to 60
15 | Cc1cnc(-c2ccc3nc(-c4cccnc4N)n(-c4ccc(CN5CCC(Nc6ccnc(C#N)n6)CC5)cc4)c3n2)cn1 [Example 582, 4-((1-(4-(2-(2-Aminopyridin-3-yl)-5-(5-methylpyrazin-2-yl)-3H-imidazo[4,5-b]pyridin-3-yl)benzyl)piperidin-4-yl)amino)pyrimidine-2-carbonitrile] | < 15
16 | COc1cnc(-c2ccc3nc(-c4cccnc4N)n(-c4ccc(CN5CCC(Nc6ccnc(C#N)n6)CC5)cc4)c3n2)cn1 [Example 583, 4-((1-(4-(2-(2-Aminopyridin-3-yl)-5-(5-methoxypyrazin-2-yl)-3H-imidazo[4,5-b]pyridin-3-yl)benzyl)piperidin-4-yl)amino)pyrimidine-2-carbonitrile] | < 15
17 | CCOc1ccc(-c2ccc3nc(-c4cccnc4N)n(-c4ccc(CN5CCC(Nc6ccnc(C#N)n6)CC5)cc4)c3n2)cn1 [Example 584, 4-((1-(4-(2-(2-Aminopyridin-3-yl)-5-(6-ethoxypyridin-3-yl)-3H-imidazo[4,5-b]pyridin-3-yl)benzyl)piperidin-4-yl)amino)pyrimidine-2-carbonitrile] | < 15
18 | N#Cc1nccc(NC2CCN(Cc3ccc(-n4c(-c5cccnc5N)nc5ccc(-c6ccc(OC7CC7)cn6)nc54)cc3)CC2)n1 [Example 585, 4-((1-(4-(2-(2-Aminopyridin-3-yl)-5-(5-cyclopropoxypyridin-2-yl)-3H-imidazo[4,5-b]pyridin-3-yl)benzyl)piperidin-4-yl)amino)pyrimidine-2-carbonitrile] | < 15
19 | CC(C)Oc1ccc(-c2ccc3nc(-c4cccnc4N)n(-c4ccc(CN5CCC(Nc6ccnc(C#N)n6)CC5)cc4)c3n2)nc1 [Example 586, 4-((1-(4-(2-(2-Aminopyridin-3-yl)-5-(5-isopropoxypyridin-2-yl)-3H-imidazo[4,5-b]pyridin-3-yl)benzyl)piperidin-4-yl)amino)pyrimidine-2-carbonitrile] | < 15
20 | N#Cc1nccc(NC2CCN(Cc3ccc(-n4c(-c5cccnc5N)nc5ccc(-c6ccc(C7CC7)nc6)nc54)cc3)CC2)n1 [Example 587, 4-((1-(4-(2-(2-Aminopyridin-3-yl)-5-(6-cyclopropylpyridin-3-yl)-3H-imidazo[4,5-b]pyridin-3-yl)benzyl)piperidin-4-yl)amino)pyrimidine-2-carbonitrile] | < 15
21 | Cc1nncn1-c1ccc2nc(-c3cccnc3N)n(-c3ccc(CN4CCC(Nc5ccnc(C#N)n5)CC4)cc3)c2n1 [Example 588, 4-((1-(4-(2-(2-aminopyridin-3-yl)-5-(3-methyl-4H-1,2,4-triazol-4-yl)-3H-imidazo[4,5-b]pyridin-3-yl)benzyl)piperidin-4-yl)amino)pyrimidine-2-carbonitrile] | 15 to 60
22 | Cc1ncn(-c2ccc3nc(-c4cccnc4N)n(-c4ccc(CN5CCC(Nc6ccnc(C#N)n6)CC5)cc4)c3n2)n1 [Example 589, 4-((1-(4-(2-(2-aminopyridin-3-yl)-5-(3-methyl-1H-1,2,4-triazol-1-yl)-3H-imidazo[4,5-b]pyridin-3-yl)benzyl)piperidin-4-yl)amino)pyrimidine-2-carbonitrile] | 15 to 60
23 | N#Cc1nccc(NC2CCN(Cc3ccc(-n4c(-c5cccnc5N)nc5ccc(-n6cncn6)nc54)cc3)CC2)n1 [Example 590, 4-((1-(4-(2-(2-Aminopyridin-3-yl)-5-(1H-1,2,4-triazol-1-yl)-3H-imidazo[4,5-b]pyridin-3-yl)benzyl)piperidin-4-yl)amino)pyrimidine-2-carbonitrile] | < 15
24 | N#Cc1nccc(NC2CCN(Cc3ccc(-n4c(-c5cccnc5N)nc5ccc(-n6ccnn6)nc54)cc3)CC2)n1 [Example 591, 4-((1-(4-(2-(2-Aminopyridin-3-yl)-5-(1H-1,2,3-triazol-1-yl)-3H-imidazo[4,5-b]pyridin-3-yl)benzyl)piperidin-4-yl)amino)pyrimidine-2-carbonitrile] | < 15
25 | N#Cc1nccc(NC2CCN(Cc3ccc(-n4c(-c5cccnc5N)nc5ccc(-n6nccn6)nc54)cc3)CC2)n1 [Example 592, 4-((1-(4-(2-(2-Aminopyridin-3-yl)-5-(2H-1,2,3-triazol-2-yl)-3H-imidazo[4,5-b]pyridin-3-yl)benzyl)piperidin-4-yl)amino)pyrimidine-2-carbonitrile] | < 15
26 | Cc1cn(-c2ccc3nc(-c4cccnc4N)n(-c4ccc(CN5CCC(Nc6ccnc(C#N)n6)CC5)cc4)c3n2)nn1 [Example 593, 4-((1-(4-(2-(2-Aminopyridin-3-yl)-5-(4-methyl-1H-1,2,3-triazol-1-yl)-3H-imidazo[4,5-b]pyridin-3-yl)benzyl)piperidin-4-yl)amino)pyrimidine-2-carbonitrile] | < 15
